Measurements as given in patent publication US5583000A, “Protease-binding compounds and methods of use” (priority 1993, dated 1996).
Like-named read-outs stand apart in the source and are kept apart here.

Legend:
HIV-1 protease = HIV-1 protease (Human immunodeficiency virus type 1 group M subtype B, UniProt P03369); assay: biochemical; conditions: for IC50: HIV-1 Protease IC50 (μM) 1M NaCl
HIV-2 protease = target: T1, HIV-2 protease (Human immunodeficiency virus type 2 subtype A, UniProt P04584); assay: biochemical; conditions: 1M NaCl
T1 construct: the coding region of the 99-amino acid protease; made in house; host or cells: Saccharomyces cerevisiae strain AB110, plasmid pHIV2PR115
Description: The decapeptide was synthesized by conventional solid-state methods. Reactions were carried out and fractionated by HPLC. Conversion of the decapeptide to the two pentapeptides was quantitated by integration of the peak areas and comparison to product standard curves.
Enzymatic Inhibition. […] Each data point was done in triplicate and initial enzyme rates were fit to the Michaelis-Menten equation using a nonlinear regression program ("Enzfitter" from Biosoft).

T1 sequence (P04584 514-612 limits assumed): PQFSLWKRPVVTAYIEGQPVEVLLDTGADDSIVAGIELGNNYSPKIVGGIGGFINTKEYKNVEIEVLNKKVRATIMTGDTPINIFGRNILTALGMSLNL
Description for in vitro: Cytotoxicity. The MTT assay was performed as follows:
The cells were seeded in 96-well plates and grown overnight to near 50% confluency. A serial dilution (1 to 500 μM) of each compound in culture media was prepared and 250 μL/well was added in duplicate. The cells were allowed to grow for various periods of time (6, 24, 48 hours) and any precipitation of compounds in the wells was noted. The assay was performed by removing 200 μL of the culture media and adding 25 μL of MTT solution (2 mg/mL in phosphate buffered saline (PBS)). This was incubated for 4 hours at 37° C. and live cells began to turn purple while the solution remained yellow. To quench the reaction and solubilize the reaction product, 160 μL of acidified isopropanol (4 mL 1N HCl for 96 mL alcohol) were added and the resulting mixture was mixed vigorously to dissolve purple crystals. Absorbance was determined at 550-570 nm on an ELISA plate reader within 0.5-2 hours. […] To obtain the LD50 values for each compound, the concentration at which the absorbance is haft of that for the untreated cells was determined.

SMILES | CC50 at 6 h (in vitro) [µM] | HIV-1 Protease Therapeutic Index (LD50 /IC50) (HIV-1 protease) | IC50 (HIV-1 protease) [µM] | solubility (physchem) [µM] | IC50 (HIV-2 protease) [µM] | solubility (Solubility) [µM] | IC50 (HIV-1 protease; 1M NaCl) [µM] | HIV-1 Protease Therapeutic Index (LD50 /IC50) (HIV-1 protease; LD50/IC50) | CC50 at 4 h (in vitro) [µM]
O=C(CCCN1CCC(O)(c2ccccc2)CC1)c1ccccc1 [UCSF34, 4-(4-phenyl-4-hydroxypiperidinyl)butyrophenone] | > 500 | > 1.25 | 400 | > 500 | 288 |  |  |  | 
O=C(CCCN1CCC(O)(c2ccc(Cl)cc2)CC1)c1ccc(-c2ccccc2)cc1 [UCSF36, 4-[4-(p-chlorophenyl)-4-hydroxypiperidinyl]-4'-phenylbutyrophenone] | 50 | 1.4 | 32 | < 50 | 53 |  |  |  | 
C=C(CCCN1CCC(O)(c2ccc(Cl)cc2)CC1)c1ccc(F)cc1 [UCSF37, 1-[4-(4-chlorophenyl)-4-hydroxypiperidinyl]-4-(4-fluorophenyl)-4-pentene] | 50 | 1.3 | 39 | < 200 | 34 |  |  |  | 
CSCC(O)(CCCN1CCC(O)(c2ccc(Cl)cc2)CC1)c1ccc(F)cc1 (stereo not shown) [UCSF39, 5-[4-(4-chlorophenyl)-4-hydroxypiperidinyl]-2-(4-fluorophenyl)pentan-2-ol-1-methylsulfide] | 90 | 1.2 | 75 | > 500 | 135 |  |  |  | 
C=CC(O)(CCCN1CCC(O)(c2ccc(Cl)cc2)CC1)c1ccc(F)cc1 (stereo not shown) [UCSF40, 6-[4-(4-chlorophenyl)-4-hydroxypiperidinyl]-3-(4-fluorophenyl)hex-1-en-3-ol] | 100 | 1.25 | 80 | < 100 | 200 |  |  |  | 
C=C(CCCC1(O)CCC(O)(c2ccc(Cl)cc2)CC1)c1ccccc1 (stereo not shown) [UCSF41, 4-(4'-phenyl-4-pentenyl)-1-(p-chlorophenyl)-1,4-cyclohexanediol] | 90 |  |  |  |  | > 500 | 160 | 0.6 | 
Cc1ccc(C(=O)CC(CN2CCC(O)(c3ccc(Cl)cc3)CC2)c2ccccc2)cc1 (stereo not shown) [UCSF43, 4-[4-(p-chlorophenyl)-4-hydroxypiperidinyl]-3-phenyl-4'-methylbutyrophenone] | 350 | 7(1) | 50 | > 500 | 27 |  |  |  | 
Cc1ccc(C(=O)CCC(c2ccccc2)N2CCC(O)(c3ccc(Cl)cc3)CC2)cc1 (stereo not shown) [UCSF44, 4-[4-(p-chlorophenyl)-4-hydroxypiperidinyl]-4-phenyl-4'-methylbutyrophenone] | 200 | 5.7(0.7) | 35 | < 25 | 43 |  |  |  | 
OC1(c2ccc(Cl)cc2)CCN(CCN(Cc2ccccc2)Cc2ccccc2)CC1 [UCSF46, 2-[4-(4-chlorophenyl)-4-hydroxypiperidinyl]-(N,N-dibenzyl)ethylamine] | 20 | 0.7 | 30 | > 500 | 34 |  |  |  | 
OC1(c2ccc(Cl)cc2)CCN(CCC[Si](c2ccccc2)(c2ccccc2)c2ccccc2)CC1 [UCSF47, (3-[4-(4-chlorophenyl)-4-hydroxypiperidinyl)-1-propyl)triphenylsilane] | 15 | 0.2 | 90 | > 500 | 1.5 |  |  |  | 
OC1(c2ccc(Cl)cc2)CCN(CCCC2(c3ccccc3)OCCO2)CC1 [UCSF49] | 120 | 1.2 | 100 | < 50 | 180 |  |  |  | 
CC(CCN1CCC(O)(c2ccc(Cl)cc2)CC1)C(=O)c1ccc(F)cc1 (stereo not shown) [UCSF50] | 90 |  | 100 | > 500 | 126 |  |  |  | 
O=C(CCCN1CCC(O)(c2ccc(Cl)cc2)CC1)c1ccccc1-c1ccccc1 [UCSF51, 4-(4-(p-chlorophenyl)-4-hydroxypiperidinyl)-2'-phenylbutyrophenone] | 45 |  | 40 | < 250 | 68 |  |  |  | 
O=C(CCCN1CCC(O)(c2ccc(Cl)cc2)CC1)c1cccc(-c2ccccc2)c1 [UCSF52, 4-(4-(p-chlorophenyl)-4-hydroxypiperidinyl)-3'-phenylbutyrophenone] | 10 | 0.5 | 20 | < 250 | 19 |  |  |  | 
OC1(CCCCc2ccccc2)CCC(O)(c2ccc(Cl)cc2)CC1 (stereo not shown) [UCSF54] | 190 |  |  |  |  | > 500 | 2500 | < 0.08 | 
OC1(c2ccc(Cl)cc2)CCN(CCCNCc2ccccc2)CC1 [UCSF55, 3-[4-(4-chlorophenyl)-4-hydroxypiperidinyl]-N-(benzyl)propylamine] |  | < 0.02 | 2500 | > 500 | > 2500 |  |  |  | 60
OC1(c2ccc(Cl)cc2)CCN(CCCC(O)(c2ccccc2)c2ccccc2-c2ccccc2)CC1 (stereo not shown) [UCSF56] |  |  | 20 | < 500 | 11 |  |  |  | 20
OC1(c2ccc(Cl)cc2)CCN(CCCC(O)(c2ccccc2)c2cccc(-c3ccccc3)c2)CC1 (stereo not shown) [UCSF57, 4-(4-(p-chlorophenyl)-4-hydroxypiperidinyl)-1-phenyl-1-(3'-phenylphenyl)-butan-1-ol] |  |  | 10 | < 500 | 14 |  |  |  | 25

SMILES | CC50 at 6 h (in vitro) [µM] | HIV-1 Protease Therapeutic Index (LD50 /IC50) (HIV-1 protease) | IC50 (HIV-1 protease) [µM] | solubility (physchem) [µM] | IC50 (HIV-2 protease) [µM] | solubility (Solubility) [µM] | IC50 (HIV-1 protease; 1M NaCl) [µM] | HIV-1 Protease Therapeutic Index (LD50 /IC50) (HIV-1 protease; LD50/IC50) | CC50 at 4 h (in vitro) [µM]
COCCN(CCN1CCC(O)(c2ccc(Cl)cc2)CC1)Cc1ccccc1 [UCSF58, 2-[4-(4-chlorophenyl)-4-hydroxypiperidinyl]-N-benzyl-N-(2-methoxyethyl)ethylamine] |  | < 0.3 | 300 | > 500 | 290 |  |  |  | 110
OC1(c2ccc(Cl)cc2)CCN(CCCC2(c3cccc(-c4ccccc4)c3)SCCS2)CC1 [UCSF59] |  |  | 8 | < 500 | 7 |  |  |  | 45
O=C(CCCN1CCC(CO)(c2ccccc2)CC1)c1ccc(F)cc1 [UCSF60] |  | > 0.2 | 2500 | > 500 | > 2500 |  |  |  | > 500
OC1(c2ccc(Cl)cc2)CCN(CCCN(CCc2ccccc2)Cc2ccccc2)CC1 [UCSF61, 3-[4-(4-chlorophenyl)-4-hydroxypiperidinyl]-N-benzyl-N-(2-phenyl-ethyl)-propylamine] | 40 | 0.2-0.4 | 220 | < 500 | 230 |  |  |  | 
O=C(CCCN1CCC(O)(c2ccc(Cl)cc2)CC1)c1ccccc1 [UCSF62] | 380 |  | 100 | < 250 | 40 |  |  |  | 
OC1(c2ccc(Cl)cc2)CCN(CCCN(Cc2ccccc2)Cc2ccc(-c3ccccc3)cc2)CC1 [UCSF63] | 25 |  | 18 | > 500 | 15 |  |  |  | 
O=C(CCCC1(O)CCC(O)(c2ccc(Cl)cc2)CC1)c1ccc(F)cc1 (stereo not shown) [UCSF65, 4-(4'-p-fluorophenyl-4'-butanone)-1-p-chlorophenyl-1,4-cyclohexanediol] | 250 |  |  |  |  | < 100 |  |  | 
O=C(Cc1ccccc1)N(CCCN1CCC(O)(c2ccc(Cl)cc2)CC1)Cc1ccccc1 [UCSF66] | 25 | 0.3 | 70 | < 250 | 48 |  |  |  | 
O=C(CCC[N+]1([O-])CCC(O)(c2ccc(Cl)cc2)CC1)c1cccc(-c2ccccc2)c1 (stereo not shown) [UCSF67] | > 25 | 0.3 | 80 | > 25 | 10 |  |  |  | 
C#CCC(CCN1CCC(O)(c2ccc(Cl)cc2)CC1)C(=O)c1ccc(F)cc1 (stereo not shown) [UCSF68] | 100 |  | 105 | < 500 | 48 |  |  |  | 
C#CCC(CC#C)(CCN1CCC(O)(c2ccc(Cl)cc2)CC1)C(=O)c1ccc(F)cc1 [UCSF69] | 220 |  | 50 | < 100 | 60 |  |  |  | 
OC(CC#CC1(O)CCN(Cc2ccccc2)CC1)c1ccccc1 (stereo not shown) [UCSF72] | 260 |  |  |  |  | > 500 | 750 |  | 
CC(CCc1ccccc1)N1CCC(O)(c2ccc(Cl)cc2)CC1 (stereo not shown) [UCSF73] | 360 |  | 100 | < 500 | 188 |  |  |  | 
OC1(C2(c3ccc(Cl)cc3)SCCCS2)CCN(CCCC2(c3ccc(F)cc3)SCCS2)CC1 [UCSF75] | 200 |  |  |  | 13 | < 50 | 50 |  | 
OC(CC=CC1(O)CCN(Cc2ccccc2)CC1)c1ccccc1 (stereo not shown) [UCSF76] | 440 |  |  |  |  | > 500 | 1650 |  | 
OC1(c2ccc(Cl)cc2)CCN(CCCC2(c3ccc(F)cc3)OCCS2)CC1 (stereo not shown) [UCSF78] | 35 |  | 39 | > 500 | 167 |  |  |  | 
CC[C@@H]1CSC(CCCN2CCC(O)(c3ccc(Cl)cc3)CC2)(c2ccc(F)cc2)O1 (stereo partly shown) [UCSF79] | 35 |  | 30 | > 250 | 68 |  |  |  | 
CC[C@H]1CSC(CCCN2CCC(O)(c3ccc(Cl)cc3)CC2)(c2ccc(F)cc2)O1 (stereo partly shown) [UCSF80] | 40 |  | 33 | > 250 | 58 |  |  |  | 
